Literature values in US10548859B2, “Methods for storing Cysteamine formulations and related methods of treatment” (Horizon Orphan LLC, priority 2015, dated 2020).

Conditions: children with cystinosis

For `COc1ccc2c(c1)c(CC(=O)O)c(C)n2C(=O)c1ccc(Cl)cc1` [indomethacin], the “reduction of urine volume and liquid consumption” value is listed as “about 30%”.
